In ChEMBL document CHEMBL1201862, “PubChem BioAssay data set” (2004):
The source made the active and inactive calls.

Tests used:
[1] = molecular target: Benomyl/methotrexate resistance protein (Candida albicans, UniProt P28873); test: Candida albicans Mdr1 pump inhibition curves – singleplex, Cherry Pick1 hits, dose response (AID 588608); assay type: functional
[2] = alpha-synuclein stem-loop luciferase translation blockers – H4 neuroglioma cells, luminescence, confirmation (AID 1988); assay type: functional, cell-based
[3] = molecular target: Heat shock protein HSP 90-alpha (Homo sapiens, UniProt P07900); assay type: functional, organism-based
[4] = molecular target: 72 kDa type IV collagenase (Homo sapiens, UniProt P08253); test: Dose Response validation of uHTS RPN11 inhibitor hits using a MMP-2 Fluorescence assay.; assay type: functional
72 kDa type IV collagenase, sequence (P08253 whole entry): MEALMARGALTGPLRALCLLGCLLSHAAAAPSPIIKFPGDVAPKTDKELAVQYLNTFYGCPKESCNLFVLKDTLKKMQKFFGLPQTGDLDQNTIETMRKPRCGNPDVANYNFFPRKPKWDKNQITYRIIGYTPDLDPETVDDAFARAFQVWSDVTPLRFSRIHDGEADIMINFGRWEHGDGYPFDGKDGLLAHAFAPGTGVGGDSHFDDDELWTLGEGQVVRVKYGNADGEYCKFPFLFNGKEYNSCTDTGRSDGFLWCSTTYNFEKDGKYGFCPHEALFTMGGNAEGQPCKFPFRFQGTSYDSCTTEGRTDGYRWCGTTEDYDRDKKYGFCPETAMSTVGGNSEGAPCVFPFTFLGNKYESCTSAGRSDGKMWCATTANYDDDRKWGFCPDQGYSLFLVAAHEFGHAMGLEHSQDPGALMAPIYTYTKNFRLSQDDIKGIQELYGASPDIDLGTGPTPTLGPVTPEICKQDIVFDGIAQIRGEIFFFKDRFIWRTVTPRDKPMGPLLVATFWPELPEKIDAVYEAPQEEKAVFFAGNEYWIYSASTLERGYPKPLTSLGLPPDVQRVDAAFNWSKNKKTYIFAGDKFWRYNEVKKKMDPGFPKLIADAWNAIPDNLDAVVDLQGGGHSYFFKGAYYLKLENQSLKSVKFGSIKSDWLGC

Prothrombin = Prothrombin (Bos taurus, UniProt P00735); test: thrombin protease inhibitors – biochemical, fluorescence polarization, uHTS hits, dose response (AID 602369); assay type: functional
Bcl-2-related protein A1 = molecular target: T1, Bcl-2-related protein A1 (Mus musculus, UniProt Q07440); assay type: functional;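 note: confirmatory dose–response counterscreen on Bfl-1, used to check hits from a UBC13 polyubiquitin inhibitor campaign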
T1 sequence (Q07440 whole entry): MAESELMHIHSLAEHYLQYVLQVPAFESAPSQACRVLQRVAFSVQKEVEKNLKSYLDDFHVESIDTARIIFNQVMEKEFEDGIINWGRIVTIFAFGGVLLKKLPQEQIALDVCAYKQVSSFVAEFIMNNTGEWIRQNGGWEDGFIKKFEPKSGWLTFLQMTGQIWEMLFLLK

[5] = luciferase reporter signal suppression in cells – H4 neuroglioma cells, luminescence, dose response (AID 1990); assay type: functional, cell-based
[6] = molecular target: T2, Apoptotic protease-activating factor 1 (Homo sapiens, UniProt O14727); assay type: functional
T2 sequence (O14727 whole entry): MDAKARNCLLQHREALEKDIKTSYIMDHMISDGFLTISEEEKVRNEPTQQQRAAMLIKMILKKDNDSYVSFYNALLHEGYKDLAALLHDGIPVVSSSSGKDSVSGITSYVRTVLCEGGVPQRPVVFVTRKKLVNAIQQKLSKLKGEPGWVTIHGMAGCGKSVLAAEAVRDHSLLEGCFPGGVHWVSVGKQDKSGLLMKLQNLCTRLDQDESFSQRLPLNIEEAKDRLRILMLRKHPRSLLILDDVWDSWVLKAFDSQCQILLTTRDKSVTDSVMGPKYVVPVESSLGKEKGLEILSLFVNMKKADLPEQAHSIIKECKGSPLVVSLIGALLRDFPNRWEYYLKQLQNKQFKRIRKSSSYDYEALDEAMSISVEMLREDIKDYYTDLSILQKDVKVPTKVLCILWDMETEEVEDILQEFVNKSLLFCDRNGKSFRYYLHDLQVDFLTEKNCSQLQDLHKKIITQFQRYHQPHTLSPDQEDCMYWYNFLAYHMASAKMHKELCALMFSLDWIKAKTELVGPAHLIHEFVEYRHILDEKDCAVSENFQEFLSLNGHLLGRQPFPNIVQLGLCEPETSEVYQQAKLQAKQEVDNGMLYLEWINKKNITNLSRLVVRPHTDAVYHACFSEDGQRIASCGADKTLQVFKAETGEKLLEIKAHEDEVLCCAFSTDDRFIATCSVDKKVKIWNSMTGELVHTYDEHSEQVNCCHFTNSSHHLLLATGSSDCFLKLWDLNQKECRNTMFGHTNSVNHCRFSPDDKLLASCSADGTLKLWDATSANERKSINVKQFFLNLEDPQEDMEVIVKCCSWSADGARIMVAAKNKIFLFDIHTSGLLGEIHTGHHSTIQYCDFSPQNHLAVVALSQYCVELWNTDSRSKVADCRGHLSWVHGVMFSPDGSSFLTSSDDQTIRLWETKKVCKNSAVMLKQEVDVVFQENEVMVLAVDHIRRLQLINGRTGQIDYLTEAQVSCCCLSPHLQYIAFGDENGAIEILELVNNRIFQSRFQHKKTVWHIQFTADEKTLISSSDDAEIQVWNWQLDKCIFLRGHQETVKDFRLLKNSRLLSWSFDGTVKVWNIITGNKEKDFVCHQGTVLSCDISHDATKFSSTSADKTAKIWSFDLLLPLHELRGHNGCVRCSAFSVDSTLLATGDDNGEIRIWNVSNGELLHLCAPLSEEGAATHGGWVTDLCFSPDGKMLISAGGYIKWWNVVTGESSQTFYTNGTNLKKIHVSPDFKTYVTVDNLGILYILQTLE

[7] = molecular target: T3, DNA repair protein RAD52 homolog (Homo sapiens, UniProt P43351); assay type: functional, biochemical
T3 sequence (P43351 whole entry): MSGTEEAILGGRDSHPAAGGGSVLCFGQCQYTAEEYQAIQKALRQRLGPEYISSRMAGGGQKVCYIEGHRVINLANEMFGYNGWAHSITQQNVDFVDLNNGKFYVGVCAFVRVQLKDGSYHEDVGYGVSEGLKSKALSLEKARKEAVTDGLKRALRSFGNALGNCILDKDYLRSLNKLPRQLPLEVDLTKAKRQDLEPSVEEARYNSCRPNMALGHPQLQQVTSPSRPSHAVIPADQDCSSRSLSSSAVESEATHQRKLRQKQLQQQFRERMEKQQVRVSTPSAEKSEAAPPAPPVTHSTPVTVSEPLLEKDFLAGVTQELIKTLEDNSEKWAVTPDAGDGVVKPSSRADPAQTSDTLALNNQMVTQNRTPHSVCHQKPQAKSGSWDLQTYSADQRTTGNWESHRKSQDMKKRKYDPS

[8] = molecular target: T4, Ubiquitin-conjugating enzyme E2 N (Homo sapiens, UniProt P61088); assay type: functional
T4 sequence (P61088 whole entry): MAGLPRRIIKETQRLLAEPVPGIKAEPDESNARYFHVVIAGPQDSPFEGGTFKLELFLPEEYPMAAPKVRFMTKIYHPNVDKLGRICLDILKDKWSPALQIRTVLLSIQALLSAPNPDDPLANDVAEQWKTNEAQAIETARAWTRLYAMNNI

[9] = molecular target: T4, Ubiquitin-conjugating enzyme E2 N; assay type: functional; remark: listed apart in the source
[10] = molecular target: 26S proteasome non-ATPase regulatory subunit 14 (Homo sapiens, UniProt O00487); test: inhibition of proteasome subunit RPN11 – biochemical, fluorescence polarization, uHTS hits, confirmation (AID 602368); assay type: functional
26S proteasome non-ATPase regulatory subunit 14, sequence (O00487 whole entry): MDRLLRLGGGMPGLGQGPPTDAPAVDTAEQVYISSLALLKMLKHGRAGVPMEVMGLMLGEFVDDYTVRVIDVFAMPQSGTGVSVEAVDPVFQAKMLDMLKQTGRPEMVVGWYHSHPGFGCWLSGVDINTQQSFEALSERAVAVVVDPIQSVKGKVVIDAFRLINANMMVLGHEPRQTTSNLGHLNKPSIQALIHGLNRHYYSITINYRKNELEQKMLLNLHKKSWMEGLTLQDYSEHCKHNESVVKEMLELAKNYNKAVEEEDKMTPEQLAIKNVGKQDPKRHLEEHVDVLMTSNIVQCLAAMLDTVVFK

[11] = molecular target: T5, Neuropeptides B/W receptor type 1 (Homo sapiens, UniProt P48145); test: human NPBW1 receptor blockade, IC50 – cell-based, fluorescence, dose response, set 5, late-stage follow-up (AID 588566); assay type: functional
T5 sequence (P48145 whole entry): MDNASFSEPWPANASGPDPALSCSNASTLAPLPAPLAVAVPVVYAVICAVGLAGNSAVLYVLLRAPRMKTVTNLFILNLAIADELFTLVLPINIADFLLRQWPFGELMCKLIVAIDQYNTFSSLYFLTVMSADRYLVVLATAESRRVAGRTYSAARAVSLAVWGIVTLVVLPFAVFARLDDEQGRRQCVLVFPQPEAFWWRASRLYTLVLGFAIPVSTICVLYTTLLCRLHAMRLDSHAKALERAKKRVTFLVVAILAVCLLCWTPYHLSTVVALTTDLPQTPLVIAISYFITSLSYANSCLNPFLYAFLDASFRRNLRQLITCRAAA

[12] = molecular target: Melanin-concentrating hormone receptor 1 (Homo sapiens, UniProt Q99705); test: Late-stage fluorescence-based counterscreen for antagonists of the G-protein coupled receptor 7 (GPR7): cell-based dose response assay to identify antagonists of the melanin-concentrating hormone receptor 1 (MCHR1) Set 5.; assay type: functional
Melanin-concentrating hormone receptor 1, sequence (Q99705 whole entry): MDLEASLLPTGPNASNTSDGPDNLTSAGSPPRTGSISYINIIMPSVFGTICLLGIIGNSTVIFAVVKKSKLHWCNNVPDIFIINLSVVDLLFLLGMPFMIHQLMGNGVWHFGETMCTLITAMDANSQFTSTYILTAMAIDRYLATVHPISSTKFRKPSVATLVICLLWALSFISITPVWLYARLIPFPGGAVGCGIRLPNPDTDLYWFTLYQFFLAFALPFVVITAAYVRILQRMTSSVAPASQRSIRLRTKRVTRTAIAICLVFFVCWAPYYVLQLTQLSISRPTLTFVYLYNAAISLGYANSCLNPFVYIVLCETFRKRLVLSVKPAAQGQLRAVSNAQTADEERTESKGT

[13] = NIH3T3 cell viability loss – ATP luminescence, mouse fibroblasts, counter-screen, dose response (AID 2010); assay type: functional, cell-based;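 note: cells exposed to compound for about 90 hours before reading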
[14] = HEK-293T viability loss after treatment – luminescence, T-cell screen hits, cytotoxicity control for TCR NF-kB inhibitor project, dose response (AID 489026); assay type: functional, cell-based;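 note: cells exposed to compound about 14 hours before the viability readout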
HEK293 [15] = test: cells; assay type: functional, cell-based; details: Homo sapiens
[16] = loss of viability in HepG2 cells – cell-based, CellTiter-Glo, cherry-picked, cytotoxicity control for Shn3 inhibitor project, dose response (AID 624134); assay type: functional
[17] = molecular target: T6, Kappa-type opioid receptor (Homo sapiens, UniProt P41145); assay type: functional
T6 sequence (P41145 whole entry): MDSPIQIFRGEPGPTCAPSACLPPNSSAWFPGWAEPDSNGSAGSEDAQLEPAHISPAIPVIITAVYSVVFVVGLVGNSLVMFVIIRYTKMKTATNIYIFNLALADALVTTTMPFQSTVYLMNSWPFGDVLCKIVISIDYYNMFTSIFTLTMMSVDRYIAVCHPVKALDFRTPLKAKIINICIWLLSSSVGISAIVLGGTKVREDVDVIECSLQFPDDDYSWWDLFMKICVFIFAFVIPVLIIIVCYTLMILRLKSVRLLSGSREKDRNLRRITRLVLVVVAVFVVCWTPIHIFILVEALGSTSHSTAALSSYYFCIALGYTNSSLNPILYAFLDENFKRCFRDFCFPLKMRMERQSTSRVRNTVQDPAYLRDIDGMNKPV

[18] = Trypanosoma cruzi growth suppression in host cells – NIH3T3 host cells, beta-gal luminescence, confirmation (AID 2044); assay type: functional, cell-based;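 note: intracellular parasites grown in NIH/3T3 mouse fibroblasts as host cells; luminescent beta-galactosidase reporter signal from transgenic T. cruzi replicating inside host cells; inhibitors lower the luminescence signal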
[19] = molecular target: T6, Kappa-type opioid receptor; assay type: functional; remark: listed apart in the source
HEK293 [20] = test: inhibition of NOD1-driven NF-kB reporter – cell-based, luminescence, uHTS, primary screen (AID 1578); assay type: functional; details: Homo sapiens
HEK293 [21] = test: EBV LMP1 TES2 canonical NF-kB signalling blockers – cell-based, HEK293, luciferase, cherry-pick, dose response (AID 588343); assay type: functional; details: Homo sapiens
[22] = mammalian cell viability loss – Alamar Blue, dry powder, cytotoxicity control for antifungal single agent project, dose response (AID 602188); assay type: functional, cell-based
HEK293 [23] = test: NOD2 signaling inhibitors in MDP-stimulated cells, cell-based, uHTS, luminescence (AID 2001); assay type: functional; details: Homo sapiens
[24] = molecular target: Nucleotide-binding oligomerization domain-containing protein 2 (Homo sapiens, UniProt Q9HC29); test: inhibition of NOD2-driven NF-kB reporter – cell-based, luminescence, uHTS, HEK293 (AID 1566); assay type: functional
Nucleotide-binding oligomerization domain-containing protein 2, sequence (Q9HC29 whole entry, the tested form may be a part): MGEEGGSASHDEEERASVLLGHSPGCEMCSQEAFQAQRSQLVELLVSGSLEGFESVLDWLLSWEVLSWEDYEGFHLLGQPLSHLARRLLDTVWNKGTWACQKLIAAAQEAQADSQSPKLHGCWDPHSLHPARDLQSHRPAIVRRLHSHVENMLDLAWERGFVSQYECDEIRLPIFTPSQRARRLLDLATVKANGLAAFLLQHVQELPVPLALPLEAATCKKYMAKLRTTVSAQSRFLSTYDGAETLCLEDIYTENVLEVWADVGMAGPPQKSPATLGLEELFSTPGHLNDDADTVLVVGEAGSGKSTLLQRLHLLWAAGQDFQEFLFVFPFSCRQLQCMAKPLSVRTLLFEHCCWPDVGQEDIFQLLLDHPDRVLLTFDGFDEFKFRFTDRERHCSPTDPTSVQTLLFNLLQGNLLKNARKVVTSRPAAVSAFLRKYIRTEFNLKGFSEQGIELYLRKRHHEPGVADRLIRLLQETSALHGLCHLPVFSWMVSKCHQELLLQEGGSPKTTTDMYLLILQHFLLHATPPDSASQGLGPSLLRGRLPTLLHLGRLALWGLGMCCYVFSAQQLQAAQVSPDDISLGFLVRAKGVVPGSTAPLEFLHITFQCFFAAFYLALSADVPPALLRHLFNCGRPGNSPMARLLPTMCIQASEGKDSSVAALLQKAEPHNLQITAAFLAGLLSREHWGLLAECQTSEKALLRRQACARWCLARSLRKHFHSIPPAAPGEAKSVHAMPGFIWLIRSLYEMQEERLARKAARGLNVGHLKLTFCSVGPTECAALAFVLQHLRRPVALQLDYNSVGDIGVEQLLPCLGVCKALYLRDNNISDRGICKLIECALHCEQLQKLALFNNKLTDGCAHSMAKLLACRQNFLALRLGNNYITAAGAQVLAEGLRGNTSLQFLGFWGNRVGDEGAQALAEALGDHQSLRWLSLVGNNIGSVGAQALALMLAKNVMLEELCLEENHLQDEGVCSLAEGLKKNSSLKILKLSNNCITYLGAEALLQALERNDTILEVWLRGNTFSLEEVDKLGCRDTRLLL

[25] = reduction of Shn3 3'UTR-driven luciferase in osteoblasts – cell-based, Clone20 osteoblasts, firefly luciferase, cherry-picked, dose response (AID 624132); assay type: functional;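 note: firefly luciferase luminescence from reporter carrying the Shn3 3'UTR in osteoblasts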
[26] = non-specific 3'UTR reporter inhibition in Clone20-Shn3RL – cell-based, Renilla luciferase, cherry-picked, counter-screen for Shn3 inhibitor project, dose response (AID 624133); assay type: functional
[27] = molecular target: T7, Heat shock factor protein 1 (Mus musculus, UniProt P38532); test: enhancement of HSF1-driven luciferase signal – cell-based, NIH3T3, luminescence, dose retest, confirmation (AID 435004); assay type: functional;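 note: stress induced by proteasome inhibitor MG132 added 30 min after compound; luciferase reporter driven by HSF1 response element in NIH3T3 cells; actives raise luminescence as potentiators of the MG132 stress response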
T7 sequence (P38532 whole entry): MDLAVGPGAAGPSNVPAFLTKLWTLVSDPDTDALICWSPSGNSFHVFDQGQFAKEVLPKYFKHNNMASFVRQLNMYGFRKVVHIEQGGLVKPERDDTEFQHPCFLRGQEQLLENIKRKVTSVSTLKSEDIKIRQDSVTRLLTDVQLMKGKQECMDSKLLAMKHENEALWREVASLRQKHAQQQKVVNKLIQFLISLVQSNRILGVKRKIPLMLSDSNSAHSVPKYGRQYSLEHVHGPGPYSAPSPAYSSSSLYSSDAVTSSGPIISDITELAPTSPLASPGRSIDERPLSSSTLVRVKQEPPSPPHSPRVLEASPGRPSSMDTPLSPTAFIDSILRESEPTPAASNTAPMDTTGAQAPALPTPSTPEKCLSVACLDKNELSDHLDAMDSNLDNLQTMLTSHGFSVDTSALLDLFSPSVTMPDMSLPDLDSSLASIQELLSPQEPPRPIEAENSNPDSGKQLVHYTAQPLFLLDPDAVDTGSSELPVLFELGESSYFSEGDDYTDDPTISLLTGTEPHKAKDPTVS

Beta-galactosidase = Beta-galactosidase (Escherichia coli, UniProt Q8VNN2); assay type: functional
Beta-galactosidase, sequence (Q8VNN2 whole entry): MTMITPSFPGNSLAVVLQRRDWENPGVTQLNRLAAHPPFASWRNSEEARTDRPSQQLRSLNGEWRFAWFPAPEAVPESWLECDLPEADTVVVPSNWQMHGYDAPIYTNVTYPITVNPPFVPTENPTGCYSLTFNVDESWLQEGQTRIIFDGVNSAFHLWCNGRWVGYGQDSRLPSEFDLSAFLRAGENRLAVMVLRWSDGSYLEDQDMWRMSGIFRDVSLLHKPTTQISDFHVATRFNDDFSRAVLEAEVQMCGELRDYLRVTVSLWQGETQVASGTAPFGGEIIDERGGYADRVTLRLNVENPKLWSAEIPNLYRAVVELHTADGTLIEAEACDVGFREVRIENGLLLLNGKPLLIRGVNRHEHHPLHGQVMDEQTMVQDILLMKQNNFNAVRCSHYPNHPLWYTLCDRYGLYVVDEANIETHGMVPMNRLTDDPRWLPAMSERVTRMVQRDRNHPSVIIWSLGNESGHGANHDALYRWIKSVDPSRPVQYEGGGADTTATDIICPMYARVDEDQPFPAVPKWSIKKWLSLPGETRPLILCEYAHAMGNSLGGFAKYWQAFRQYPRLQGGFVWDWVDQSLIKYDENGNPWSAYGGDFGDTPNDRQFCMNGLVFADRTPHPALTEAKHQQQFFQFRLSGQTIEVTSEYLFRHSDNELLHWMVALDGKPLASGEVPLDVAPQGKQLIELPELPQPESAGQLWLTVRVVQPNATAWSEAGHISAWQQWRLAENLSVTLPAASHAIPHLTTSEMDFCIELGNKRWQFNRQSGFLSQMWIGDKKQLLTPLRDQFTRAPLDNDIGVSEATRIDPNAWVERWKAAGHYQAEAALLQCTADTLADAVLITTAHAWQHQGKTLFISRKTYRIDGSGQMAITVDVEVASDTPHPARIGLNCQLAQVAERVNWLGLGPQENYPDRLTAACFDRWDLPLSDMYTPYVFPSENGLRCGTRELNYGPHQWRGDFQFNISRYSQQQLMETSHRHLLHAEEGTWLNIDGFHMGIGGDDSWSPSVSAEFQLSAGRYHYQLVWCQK

HEK293 [28] = test: cells; assay type: functional, cell-based; details: Homo sapiens; remark: listed apart in the source
INS1 = test: INS-1E survival protection against cytokine death – cell-based, luminescence, retest, dose response (AID 449756); assay type: functional; details: Rattus norvegicus;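 note: cell death triggered by IL-1 beta plus TNF-alpha plus IFN-gamma mixture; protective hits raise ATP signal compared with cytokine alone wells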
HEK293 [29] = test: cells; assay type: functional, cell-based; details: Homo sapiens; remark: listed apart in the source

Benomyl/methotrexate resistance protein, sequence (P28873 whole entry): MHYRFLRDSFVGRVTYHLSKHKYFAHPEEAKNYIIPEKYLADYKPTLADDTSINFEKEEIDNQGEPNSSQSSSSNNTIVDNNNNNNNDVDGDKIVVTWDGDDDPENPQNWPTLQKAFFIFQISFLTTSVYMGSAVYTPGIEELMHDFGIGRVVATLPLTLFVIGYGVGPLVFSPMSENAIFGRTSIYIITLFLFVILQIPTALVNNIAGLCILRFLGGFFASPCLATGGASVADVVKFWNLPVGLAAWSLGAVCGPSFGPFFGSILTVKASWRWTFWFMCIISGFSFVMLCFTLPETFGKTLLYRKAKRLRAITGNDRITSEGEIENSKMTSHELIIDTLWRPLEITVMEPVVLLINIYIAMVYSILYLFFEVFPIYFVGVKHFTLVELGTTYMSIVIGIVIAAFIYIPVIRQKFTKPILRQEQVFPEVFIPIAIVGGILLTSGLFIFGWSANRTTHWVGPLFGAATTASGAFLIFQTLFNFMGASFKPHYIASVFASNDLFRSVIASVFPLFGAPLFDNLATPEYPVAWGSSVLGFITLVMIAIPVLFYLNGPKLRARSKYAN

Nc1c(Cl)cc(C2=NCCn3nc4ccccc4c32)cc1Cl
active: EC50 [1] 3.99 µM

CCCCCCCCCCOC(=O)Cn1c(COc2ccc(Cl)cc2)[n+](C)c2ccccc21
> 120 µM (not active): EC50 [2]
inactive: IC50 [4] > 100 µM
active: AC50 [3] 7.94 µM | IC50 (Prothrombin) 44.6 µM | IC50 (Bcl-2-related protein A1) 10.1 µM | EC50 [5] 12.9 µM | IC50 [6] 8.57 µM | AC50 [7] 7.08 µM | IC50 [8] 6.53 µM | IC50 [9] 6.71 µM | IC50 [10] 19.1 µM

COc1ccc(Oc2c(Cl)cnn(CC(=O)OC(C)(C)C)c2=O)cc1
inactive: IC50 [11] 14 µM | IC50 [12] ~19.9 µM

CCOc1ccc(Oc2c(SC)cnn(Cc3cccc4ccccc34)c2=O)cc1
inactive: IC50 [11] > 20 µM | IC50 [12] 19.6 µM

O=C(Nc1nc(-c2ccccn2)cs1)c1ccc(Cl)s1
active: EC50 [13] 0.506 µM | AC50 [16] 47.5 µM | EC50 [18] 0.279 µM | EC50 (HEK293 [20]) 7.06 µM | AC50 (HEK293 [21]) 0.515 µM | AC50 [22] 0.949 µM | IC50 (HEK293 [23]) 4.18 µM | AC50 [25] 0.817 µM | AC50 [26] 0.74 µM | IC50 (HEK293 [28]) 8.39 µM | AC50 (INS1) 0.759 µM
inactive: IC50 [14] 36.8 µM | IC50 (HEK293 [15]) > 20 µM | IC50 [19] > 31.5 µM | EC50 [24] > 20 µM | EC50 (Beta-galactosidase) > 31.5 µM | IC50 (HEK293 [29]) > 20 µM
inconclusive: EC50 [27] 2.06 µM
> 32 µM: IC50 [17]
